Data taken from US20040087514A1, “Nutritional compositions” (priority 2002, published 2004).
Marks after values point to notes of the source that are not given here.

Experiments:
Assay type in all cases: in vivo, human
GLP-1 secretion = test: Clinical study, GLP-1 levels after ingestion of load (Example 1); conditions: for GLP-1 (A): mean
Procedure: (§1) A randomized, placebo-controlled trial was performed in 20 subjects (12 women, 8 men) [body mass index (in kg/m^2): 23]. Subjects received 5 times at least one week apart- a load consisting of galactose (50 g) alone or in combination with guar gum (2,5 g), solved in 250 ml water, or 250 ml water without any additives. Prior to each treatment a catheter was placed in an anticubital vein. Eating behavior and dietary restraint status of subjects were investigated using a validated Dutch translation of the Three Factor Eating Questionnaire (TFEQ). The study was approved by the Medical Ethics Committee of the Maastricht University.

insulin release = test: Clinical study, insulin levels after ingestion of load (Example 1); conditions: mean
Procedure: as §1

[1] = system: C-peptide (indicator of insulin secretion); test: Clinical study, C-peptide levels after ingestion of load (Example 1); conditions: mean
Procedure: as §1

[2] = system: healthy, normal-weight subjects; test: Clinical study, perception of satiety, Visual Analog Scale (Example 1); conditions: mean from 100 mm Visual Analog Scale
Procedure: as §1

[3] = Clinical study, plasma glucose, galactose, free fatty acids, glycerol (Example 1); conditions: data not shown
Procedure: as §1

Structure (SMILES): O=C[C@H](O)[C@@H](O)[C@@H](O)[C@H](O)CO [Galactose, galactose]
- GLP-1 (A) (GLP-1 secretion; 0 minutes, 50 g galactose (+2,5 g guar gum) in 250 ml water): 3.8 pmol/L
- GLP-1 release compared to water (GLP-1 secretion; 30 minutes after ingestion of the load, p<0.05): significantly elevated
- GLP-1 (A) (GLP-1 secretion; 30 minutes after ingestion): 4.6^# pmol/l
- GLP-1 (A) (GLP-1 secretion; 60 minutes after ingestion): 3.5 pmol/L
- GLP-1 (A) (GLP-1 secretion; 90 minutes after ingestion): 3.2 pmol/L
- GLP-1 (A) (GLP-1 secretion; 120 minutes after ingestion): 3.7 pmol/L
- GLP-1 (A) (GLP-1 secretion; 240 minutes after ingestion): 3.7 pmol/L
- Insulin (B) (insulin release; 0 minutes): 7.3 mU/l
- Insulin (B) (insulin release; 30 minutes after ingestion): 21# mU/l
- Insulin (B) (insulin release; 60 minutes after ingestion): 13 mU/l
- Insulin (B) (insulin release; 90 minutes after ingestion): 12 mU/l
- Insulin (B) (insulin release; 120 minutes after ingestion): 9.9 mU/l
- Insulin (B) (insulin release; 240 minutes after ingestion): 4.7 mU/l
- C-peptide (A) ([1]; 0 minutes): 0.61 nmol/L
- C-peptide (A) ([1]; 30 minutes after ingestion): 1.03^# nmol/l
- C-peptide (A) ([1]; 60 minutes after ingestion): 0.89^# nmol/l
- C-peptide (A) ([1]; 120 minutes after ingestion): 0.88 nmol/L
- Satiety (B) ([2]; 0 minutes): 27^ mm
- Satiety (B) ([2]; 30 minutes): 34# mm
- Satiety (B) ([2]; 60 minutes): 33# mm
- Satiety (B) ([2]; 90 minutes): 25# mm
- Satiety (B) ([2]; 120 minutes): 31# mm
- Satiety (B) ([2]; 240 minutes): 20^ mm
- galactose levels [3]: increased galactose levels significantly
